In paper PMC4594923, “Food Polyphenols Fail to Cause a Biologically Relevant Reduction of COX-2 Activity” (PLoS ONE, 2015):
Marks after values point to notes of the source that are not given here.

Key:
[1] = system: arachidonic acid (AA) cascade; experiment: kidney tissue oxylipin/PG levels in LPS induced sepsis in mice;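 also: male C57BL/6N mice challenged with LPS, kidney taken 24 h later, oxylipins quantified by LC-MS after solid-phase extraction of tissue homogenate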
[2] = system: arachidonic acid (AA) cascade; experiment: plasma oxylipin/PG levels in LPS induced sepsis in mice; assay type: in vivo, C57BL/6N mice;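 also: male C57BL/6N mice given LPS, plasma oxylipins quantified by LC-MS after solid-phase extraction, pretreatment or vehicle given intraperitoneally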
Text: Twelve week old male C57BL/6N mice (Charles River, Sulzfeld, Germany) were used for all experiments. C57BL/6 male mice (H2^b, 11–13 weeks of age) were obtained from Charles River (Sulzfeld, Germany). Animals were cared for in accordance with the institution’s guidelines for experimental animals and with the guidelines of the American Physiological Society. […] Mice were monitored closely and if they appeared compromised (i.e. inactivity, no intake of food or water) after compound or LPS injection the experiment was terminated.
Oxylipin levels were analyzed in plasma and tissues by LC-MS following SPE extraction of 200 μl plasma or tissue homogenate (50 mg) on Chromabond C18 ec cartridges (Machery-Nagel, Düren, Germany) [19].
GraphPad Prism 5.0 (GraphPad Software, San Diego, USA) was used for data analysis, the fitting of dose response curves and calculation of the IC50 values. Statistical differences were determined by Dunnetts test (LPS vs. other groups).

[3] = kidney tissue 24 h after LPS treatment, LPS +, mean
[4] = kidney tissue 24 h after LPS treatment, LPS +, mean, < = below LOQ
[5] = mice, compound i. p. 100 mg/kg bw 2 h before LPS, 24 h after LPS, vs. LPS group
[6] = mice, compound i. p. 100 mg/kg bw 2 h before LPS (10 mg/kg bw i. p.), 24 h after LPS, vs. LPS group
[7] = plasma 24 h after LPS treatment, LPS +, mean

## Oc1ccc(/C=C/c2cc(O)cc3c2[C@@H](c2cc(O)cc(O)c2)[C@H](c2ccc(O)cc2)O3)cc1 [ε-Viniferin, ε-viniferin]
[1]; [3]
  1a,1b-dihomo-PGF2α: 3.2^† nM
  4,5-DiHDPE: 26^‡ nM
  4-HDHA: 22 nM
  5(6)-EpETrE: 70 nM
  5,6-DiHETrE: 2.2^‡ nM
  5-HEPE: 1.1 nM
  5-HETE: 13 nM
  5-oxo-ETE: 24 nM
  6-keto-PGF1α: 108^‡ nM
  7,8-DiHDPE: 1.9 nM
  7-HDHA: 2.7 nM
  8(9)-EpETrE: 15 nM
  8,9-DiHETrE: 2.2^* nM
  8-HDHA: 18^* nM
  8-HETE: 4.4 nM
  8-iPF2a: 2.7^† nM
  9(10)-EpODE: 9.9 nM
  9(10)-EpOME: 110 nM
  9(10)-Epoxystearic acid: 64 nM
  9,10,13-TriHOME: 10 nM
  9,10-DiHODE: 2.0 nM
  9,10-DiHOME: 27 nM
  9,10-Dihydroxystearic acid: 87 nM
  9,12,13-TriHOME: 69^‡ nM
  9-HETE: 3.6 nM
  9-HODE: 380^† nM
  9-HOTrE: 5.8 nM
  9-oxo-ODE: 73 nM
  10(11)-EpDPE: 27 nM
  10,11-DiHDPE: 2.3 nM
  10-HDHA: 3.6 nM
  11(12)-EpETE: 1.4 nM
  11(12)-EpETrE: 35 nM
  11,12-DiHETrE: 1.8^‡ nM
  11-HDHA: 5.4 nM
  11-HETE: 22^† nM
  12(13)-EpODE: 4.3 nM
  12(13)-EpOME: 80 nM
  12,13-DiHOME: 32^† nM
  12-HEPE: 5.0 nM
  12-HETE: 47 nM
  13(14)-EpDPE: 22 nM
  13,14-DiHDPE: 1.4 nM
  13,14-dihydro-15-keto-PGF2α: 4.6^‡ nM
  13-HDHA: 7.7 nM
  13-HODE: 310^† nM
  13-HOTrE: 6.0 nM
  13-oxo-ODE: 8.3 nM
  14(15)-EpETE: 1.7 nM
  14(15)-EpETrE: 29 nM
  14,15-DiHETE: 0.38^‡ nM
  14,15-DiHETrE: 3.4^‡ nM
  14-HDHA: 20 nM
  15(16)-EpODE: 22 nM
  15(S)-HETrE: 8.0^‡ nM
  15,16-DiHODE: 22 nM
  15-HETE: 30^* nM
  15-oxo-ETE: 9.3 nM
  16(17)-EpDPE: 21 nM
  16,17-DiHDPE: 2.7^‡ nM
  16-HDHA: 4.9^* nM
  17(18)-EpETE: 2.4 nM
  17,18-DiHETE: 1.8^‡ nM
  17-HDHA: 15 nM
  18-HEPE: 1.5 nM
  19(20)-EpDPE: 36 nM
  19,20-DiHDPE: 31^‡ nM
  20-HDHA: 17 nM
  20-HEPE: 11 nM
  EKODE: 92^‡ nM
  PGD2: 19^† nM
  PGE1: 8.3 nM
  PGE2: 110 nM
  PGF1α: 7.7^‡ nM
  PGF2α: 63^‡ nM
  TXB2: 4.9^‡ nM
[1]; [4]
  5,6-DiHETE: < 0.25 nM
  5-iPF2α: 1.5^‡ nM
  8(9)-EpETE: 1.2 nM
  12,13-DiHODE: < 2.0 nM
  13,14-dihydro-15-keto-PGE1: 0.49 nM
  20-HETE: 3.6^* nM
  PGD1: 0.84^† nM
[1]; kidney tissue 24 h after LPS treatment, LPS +, mean, second listing of PGF2α (r9)
  PGF2α: 63 nM
[1]; [5]
  kidney 6-keto-PGF1α level: elevated
  kidney 8-iPGF2α level: elevated
  kidney 13,14-dihydro-15-keto-PGE1 level: elevated
[2]; [6]
  plasma 8-iPF2α level (non-enzymatically formed autoxidation marker): high levels
  plasma 13,14-dihydro-15-keto-PGE1 level: high levels
  plasma 13,14-dihydro-15-keto-PGF2α level: high levels
  plasma PGF2α level: high levels
[2]; [7]
  1a,1b-dihomo-PGF2α concentration in plasma: 0.42^† nM
  4,5-DiHDPE concentration in plasma: 23^‡ nM
  4-HDHA concentration in plasma: 1.7 nM
  5(6)-EpETrE concentration in plasma: 11 nM
  5,6-DiHETrE concentration in plasma: 1.3^‡ nM
  5-HEPE concentration in plasma: 0.25^* nM
  5-HETE concentration in plasma: 2.8 nM
  5-iPF2α concentration in plasma: 0.91^‡ nM
  5-oxo-ETE concentration in plasma: 4.7 nM
  6-keto-PGF1α concentration in plasma: 2.8 nM
  7,8-DiHDPE concentration in plasma: 1.1 nM
  7-HDHA concentration in plasma: 0.55 nM
  8(9)-EpETrE concentration in plasma: 2.5 nM
  8,9-DiHETrE concentration in plasma: 2.5 nM
  8-HDHA concentration in plasma: 3.8 nM
  8-HEPE concentration in plasma: 1.2^† nM
  8-HETE concentration in plasma: 12^* nM
  8-iPF2a concentration in plasma: 0.30^* nM
  9(10)-EpODE concentration in plasma: 6.5 nM
  9(10)-EpOME concentration in plasma: 61 nM
  9(10)-Epoxystearic acid concentration in plasma: 37 nM
  9,10,13-TriHOME concentration in plasma: 2.2 nM
  9,10-DiHODE concentration in plasma: 4.5 nM
  9,10-DiHOME concentration in plasma: 30 nM
  9,10-Dihydroxystearic acid concentration in plasma: 10 nM
  9,12,13-TriHOME concentration in plasma: 17 nM
  9-HODE concentration in plasma: 210 nM
  9-HOTrE concentration in plasma: 12 nM
  9-oxo-ODE concentration in plasma: 38 nM
  10(11)-EpDPE concentration in plasma: 3.9 nM
  10,11-DiHDPE concentration in plasma: 0.62^* nM
  10-HDHA concentration in plasma: 27^† nM
  11(12)-EpETrE concentration in plasma: 2.6 nM
  11,12-DiHETE concentration in plasma: 0.38^‡ nM
  11,12-DiHETrE concentration in plasma: 2.0 nM
  11-HDHA concentration in plasma: 0.91 nM
  11-HETE concentration in plasma: 3.8^* nM
  12(13)-EpODE concentration in plasma: 3.3 nM
  12(13)-EpOME concentration in plasma: 48 nM
  12,13-DiHODE concentration in plasma: 2.8 nM
  12,13-DiHOME concentration in plasma: 110^* nM
  12-HEPE concentration in plasma: 239^† nM
  12-HETE concentration in plasma: 1700^† nM
  13(14)-EpDPE concentration in plasma: 2.9 nM
  13,14-DiHDPE concentration in plasma: 0.55^* nM
  13,14-dihydro-15-keto-PGE1 concentration in plasma: 0.34^† nM
  13,14dihydro-15-keto-PGF2α concentration in plasma: 2.1^‡ nM
  13-HDHA concentration in plasma: 3.9^* nM
  13-HODE concentration in plasma: 540 nM
  13-HOTrE concentration in plasma: 61 nM
  13-oxo-ODE concentration in plasma: 8.3 nM
  14(15)-EpETE concentration in plasma: 0.18^* nM
  14(15)-EpETrE concentration in plasma: 2.4 nM
  14,15-DiHETE concentration in plasma: 0.36 nM
  14,15-DiHETrE concentration in plasma: 2.5 nM
  14-HDHA concentration in plasma: 800^† nM
  15(16)-EpODE concentration in plasma: 2.9 nM
  15(S)-HETrE concentration in plasma: 5.7^‡ nM
  15,16-DiHODE concentration in plasma: 53 nM
  15-HEPE concentration in plasma: 1.5^‡ nM
  15-HETE concentration in plasma: 7.9^† nM
  15-oxo-ETE concentration in plasma: 0.34 nM
  16(17)-EpDPE concentration in plasma: 2.8 nM
  16,17-DiHDPE concentration in plasma: 1.1^† nM
  16-HDHA concentration in plasma: 1.1 nM
  17(18)-EpETE concentration in plasma: 1.1 nM
  17,18-DiHETE concentration in plasma: 1.8 nM
  17-HDHA concentration in plasma: 39^† nM
  18-HEPE concentration in plasma: 0.81 nM
  19(20)-EpDPE concentration in plasma: 13 nM
  19,20-DiHDPE concentration in plasma: 14 nM
  20-HDHA concentration in plasma: 3.6 nM
  20-HEPE concentration in plasma: 5.7^† nM
  20-HETE concentration in plasma: 2.7^‡ nM
  EKODE concentration in plasma: 16 nM
  PGD2 concentration in plasma: 0.90 nM
  PGE2 concentration in plasma: 1.6 nM
  PGF1α concentration in plasma: 0.25^‡ nM
  PGF2α concentration in plasma: 0.77^‡ nM
  TXB2 concentration in plasma: 4.2 nM
